From paper PMC9736855, “Discovery of 3-Amino-1H-pyrazole-Based Kinase Inhibitors to Illuminate the Understudied PCTAIRE Family” (International Journal of Molecular Sciences, 2022)

Tests used:
Assay in all cases: DSF
Type in all cases: binding
BRD4 = target: T1, BRD4 (Homo sapiens, UniProt O60885)
T1 construct: purchased in-house DSF panel (SGC Frankfurt)

DMPK1 = target: T2, DMPK1 (Homo sapiens, UniProt Q09013)
T2 construct: purchased in-house DSF panel (SGC Frankfurt)
T2 sequence (Q09013 1-629): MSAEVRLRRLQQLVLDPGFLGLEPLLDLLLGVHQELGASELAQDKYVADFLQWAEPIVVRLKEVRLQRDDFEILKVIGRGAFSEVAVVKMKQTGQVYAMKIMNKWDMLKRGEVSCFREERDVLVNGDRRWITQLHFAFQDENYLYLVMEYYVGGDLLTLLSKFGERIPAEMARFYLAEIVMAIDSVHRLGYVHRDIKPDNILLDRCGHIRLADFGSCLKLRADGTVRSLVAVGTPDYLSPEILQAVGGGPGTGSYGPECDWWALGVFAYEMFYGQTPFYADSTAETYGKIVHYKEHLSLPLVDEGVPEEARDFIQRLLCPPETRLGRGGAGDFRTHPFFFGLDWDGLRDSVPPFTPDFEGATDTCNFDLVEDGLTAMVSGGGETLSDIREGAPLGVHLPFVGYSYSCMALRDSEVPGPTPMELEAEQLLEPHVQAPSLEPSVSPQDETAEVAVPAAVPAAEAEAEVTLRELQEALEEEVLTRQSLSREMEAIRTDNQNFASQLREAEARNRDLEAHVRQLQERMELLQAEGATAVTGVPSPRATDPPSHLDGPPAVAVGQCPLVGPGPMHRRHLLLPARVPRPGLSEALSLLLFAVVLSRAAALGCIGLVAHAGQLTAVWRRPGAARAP
Method: (§2) Recombinant protein kinase domains with a concentration of 2 μM were mixed with a 10 μM compound solution in DMSO, 20 mM HEPES, pH 7.5, and 500 mM NaCl. SYPRO Orange (5000×, Invitrogen) was added as a fluorescence probe (1 µl per mL). Subsequently, temperature-dependent protein unfolding profiles were measured, using the QuantStudio™ 5 realtime PCR machine (Thermo Fisher, Waltham, MA, USA). […] The temperature was raised with a step rate of 3 °C per minute. Data points were analyzed with the internal software (Thermal Shift SoftwareTM Version 1.4, Thermo Fisher) using the Boltzmann equation to determine the inflection point of the transition curve [56]. Differences in melting temperature are given as ΔTm values in °C. Measurements were performed in duplicates.

MAP2K4 = target: T3, MAP2K4 (Homo sapiens, UniProt P45985)
T3 construct: purchased in-house DSF panel (SGC Frankfurt)
T3 sequence (P45985 102-367): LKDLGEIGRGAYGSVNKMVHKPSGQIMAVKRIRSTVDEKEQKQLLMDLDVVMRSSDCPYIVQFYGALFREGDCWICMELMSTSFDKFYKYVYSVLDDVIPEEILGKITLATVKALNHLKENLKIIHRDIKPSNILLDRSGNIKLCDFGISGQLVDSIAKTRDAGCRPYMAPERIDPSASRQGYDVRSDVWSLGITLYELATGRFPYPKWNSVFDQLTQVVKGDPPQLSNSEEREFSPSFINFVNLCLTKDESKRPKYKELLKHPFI
Method: as §2

MAPK15 = target: T4, MAPK15 (Homo sapiens, UniProt Q8TD08)
T4 construct: purchased in-house DSF panel (SGC Frankfurt)
T4 sequence (Q8TD08 1-346): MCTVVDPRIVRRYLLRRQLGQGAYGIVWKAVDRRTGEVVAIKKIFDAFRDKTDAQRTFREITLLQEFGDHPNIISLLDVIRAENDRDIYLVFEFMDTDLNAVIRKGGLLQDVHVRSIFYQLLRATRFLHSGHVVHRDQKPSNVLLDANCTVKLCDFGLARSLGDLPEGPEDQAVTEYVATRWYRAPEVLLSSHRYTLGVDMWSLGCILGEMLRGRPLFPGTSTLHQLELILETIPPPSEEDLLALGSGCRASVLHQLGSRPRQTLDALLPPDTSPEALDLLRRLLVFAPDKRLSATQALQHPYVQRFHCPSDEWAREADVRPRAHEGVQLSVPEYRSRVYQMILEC
Method: as §2

PIM1 = target: T5, PIM1 (Homo sapiens, UniProt P11309)
T5 construct: purchased in-house DSF panel (SGC Frankfurt)
Method: as §2

STK17B = target: T6, STK17B (Homo sapiens, UniProt O94768)
T6 construct: purchased in-house DSF panel (SGC Frankfurt)
T6 sequence (O94768 25-329): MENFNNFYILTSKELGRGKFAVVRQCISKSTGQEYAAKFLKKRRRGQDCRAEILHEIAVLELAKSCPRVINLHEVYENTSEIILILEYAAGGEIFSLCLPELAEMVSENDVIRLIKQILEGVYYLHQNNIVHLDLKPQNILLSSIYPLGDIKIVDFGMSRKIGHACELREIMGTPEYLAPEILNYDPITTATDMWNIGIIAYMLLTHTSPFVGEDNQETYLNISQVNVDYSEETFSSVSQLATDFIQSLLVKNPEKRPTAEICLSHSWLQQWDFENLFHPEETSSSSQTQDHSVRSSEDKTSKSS
Method: as §2

STK38L = target: T7, STK38L (Homo sapiens, UniProt Q9Y2H1)
T7 construct: purchased in-house DSF panel (SGC Frankfurt)
Method: as §2

ULK1 = target: T8, ULK1 (Homo sapiens, UniProt O75385)
T8 construct: purchased in-house DSF panel (SGC Frankfurt)
T8 sequence (O75385 1-283): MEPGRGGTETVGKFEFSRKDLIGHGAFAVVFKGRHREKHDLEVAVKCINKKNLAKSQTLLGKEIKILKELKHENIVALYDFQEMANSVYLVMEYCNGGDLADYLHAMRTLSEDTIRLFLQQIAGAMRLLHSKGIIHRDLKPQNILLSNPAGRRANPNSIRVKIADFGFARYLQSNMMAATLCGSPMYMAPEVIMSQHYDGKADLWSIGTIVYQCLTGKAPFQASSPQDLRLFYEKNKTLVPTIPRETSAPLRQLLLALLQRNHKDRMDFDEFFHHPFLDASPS
Method: (§1) Measurements were performed in duplicates.

EPHA4 = target: T9, EPHA4 (Homo sapiens, UniProt P54764)
T9 construct: purchased in-house DSF panel (SGC Frankfurt)
T9 sequence (P54764 606-890): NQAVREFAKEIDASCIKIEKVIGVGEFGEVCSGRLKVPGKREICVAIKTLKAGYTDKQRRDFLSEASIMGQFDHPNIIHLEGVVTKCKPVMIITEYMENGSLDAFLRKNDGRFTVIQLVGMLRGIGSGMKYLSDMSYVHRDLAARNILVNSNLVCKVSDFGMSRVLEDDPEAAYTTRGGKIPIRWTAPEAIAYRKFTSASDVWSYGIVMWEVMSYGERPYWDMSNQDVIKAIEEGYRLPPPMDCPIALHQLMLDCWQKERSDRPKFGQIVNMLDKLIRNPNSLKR
Method: as §1

HIPK2 = target: T10, HIPK2 (Homo sapiens, UniProt Q9H2X6)
T10 construct: purchased in-house DSF panel (SGC Frankfurt)
Method: as §1

NEK2 = target: T11, NEK2 (Homo sapiens, UniProt P51955)
T11 construct: purchased in-house DSF panel (SGC Frankfurt)
T11 sequence (P51955 1-271): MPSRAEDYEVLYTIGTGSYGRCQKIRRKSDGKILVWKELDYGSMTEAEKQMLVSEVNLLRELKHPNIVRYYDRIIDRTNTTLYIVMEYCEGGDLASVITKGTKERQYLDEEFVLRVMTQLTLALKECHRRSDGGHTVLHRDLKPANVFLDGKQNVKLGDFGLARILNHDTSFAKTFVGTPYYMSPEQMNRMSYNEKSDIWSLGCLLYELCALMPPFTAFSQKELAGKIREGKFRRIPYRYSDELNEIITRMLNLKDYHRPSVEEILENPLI
Method: as §1

T7 sequence (Q9Y2H1 90-453): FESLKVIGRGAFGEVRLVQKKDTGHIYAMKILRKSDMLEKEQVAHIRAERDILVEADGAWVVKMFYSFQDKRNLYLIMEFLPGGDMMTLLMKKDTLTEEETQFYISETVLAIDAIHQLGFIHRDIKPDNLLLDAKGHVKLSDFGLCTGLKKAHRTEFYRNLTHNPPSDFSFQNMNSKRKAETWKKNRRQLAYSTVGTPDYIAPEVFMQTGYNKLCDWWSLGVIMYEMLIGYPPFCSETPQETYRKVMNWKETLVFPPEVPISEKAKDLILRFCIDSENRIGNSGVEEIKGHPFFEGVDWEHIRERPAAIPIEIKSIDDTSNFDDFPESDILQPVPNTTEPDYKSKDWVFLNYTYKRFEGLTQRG
T5 sequence (P11309 whole entry): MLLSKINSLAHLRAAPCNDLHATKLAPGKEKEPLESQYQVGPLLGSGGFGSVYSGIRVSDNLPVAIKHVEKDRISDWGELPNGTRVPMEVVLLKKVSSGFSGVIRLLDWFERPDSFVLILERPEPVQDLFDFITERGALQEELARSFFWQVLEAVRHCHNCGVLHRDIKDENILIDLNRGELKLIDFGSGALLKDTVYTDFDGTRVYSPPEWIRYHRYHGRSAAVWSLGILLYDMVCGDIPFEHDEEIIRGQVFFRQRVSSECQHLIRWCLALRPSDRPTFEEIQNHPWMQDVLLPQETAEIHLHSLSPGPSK
T10 sequence (Q9H2X6 199-527): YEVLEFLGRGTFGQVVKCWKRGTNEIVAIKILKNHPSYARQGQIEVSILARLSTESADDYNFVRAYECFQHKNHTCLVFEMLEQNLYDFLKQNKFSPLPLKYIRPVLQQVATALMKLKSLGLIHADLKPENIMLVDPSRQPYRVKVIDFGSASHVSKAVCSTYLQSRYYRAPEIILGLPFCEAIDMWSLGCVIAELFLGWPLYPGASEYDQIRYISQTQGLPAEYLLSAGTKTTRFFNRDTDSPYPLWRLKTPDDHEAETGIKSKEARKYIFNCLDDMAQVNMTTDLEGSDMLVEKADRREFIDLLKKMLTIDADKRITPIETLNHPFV

COC(=O)c1cc(Nc2ccnc(NCc3ccc(NC(=O)OC(C)(C)C)cc3)n2)[nH]n1 [21i, methyl 5-((2-((4-((tert-butoxycarbonyl)amino)benzyl)amino)pyrimidin-4-yl)amino)-1H-pyrazole-3-carboxylate]
ΔTm BRD4 (BRD4): 1.0 °C
ΔTm DMPK1 (DMPK1): 0.1 °C
ΔTm MAP2K4 (MAP2K4): 2.4 °C
ΔTm MAPK15 (MAPK15): 5.9 °C
ΔTm PIM1 (PIM1): -0.6 °C
ΔTm STK17B (STK17B): 3.4 °C
ΔTm STK38L (STK38L): 0.9 °C
ΔTm ULK1 (ULK1): 2.7 °C

CC(C)(C)OC(=O)Nc1ccc(CNc2nccc(Nc3cc(C(=O)OC(C)(C)C)[nH]n3)n2)cc1 [43d, tert-butyl 3-((2-((4-((tert-butoxycarbonyl)amino)benzyl)amino)pyrimidin-4-yl)amino)-1H-pyrazole-5-carboxylate]
ΔTm BRD4 (BRD4): -1.5 °C
ΔTm DMPK1 (DMPK1): -0.1 °C
ΔTm MAP2K4 (MAP2K4): 1.0 °C
ΔTm MAPK15 (MAPK15): 5.8 °C
ΔTm PIM1 (PIM1): -0.7 °C
ΔTm STK17B (STK17B): -2.5 °C
ΔTm STK38L (STK38L): 0.0 °C
ΔTm EPHA4 (EPHA4): 0.0 °C
ΔTm HIPK2 (HIPK2): 0.1 °C
ΔTm NEK2 (NEK2): 2.0 °C

CN[C@@H]1C[C@H]2O[C@@](C)([C@@H]1OC)n1c3ccccc3c3c4c(c5c6ccccc6n2c5c31)C(=O)NC4 [staurosporine, reference compound]
ΔTm EPHA4 (EPHA4): 6.2 °C
ΔTm HIPK2 (HIPK2): 4.4 °C
ΔTm NEK2 (NEK2): 3.3 °C
ΔTm ULK1 (ULK1): 11.3 °C

COC(=O)c1cc(Nc2ccnc(NCCOCCNC(=O)OC(C)(C)C)n2)[nH]n1 [21d, methyl 5-((2-((2-(2-((tert-butoxycarbonyl)amino)ethoxy)ethyl)amino)pyrimidin-4-yl)amino)-1H-pyrazole-3-carboxylate]
ΔTm BRD4 (BRD4): 0.7 °C
ΔTm DMPK1 (DMPK1): 0.5 °C
ΔTm MAP2K4 (MAP2K4): 0.9 °C
ΔTm MAPK15 (MAPK15): 4.1 °C
ΔTm PIM1 (PIM1): 2.1 °C
ΔTm STK17B (STK17B): 1.6 °C
ΔTm STK38L (STK38L): 1.2 °C
ΔTm ULK1 (ULK1): 2.3 °C

CC(C)OC(=O)c1cc(Nc2ccnc(NCc3ccc(NC(=O)OC(C)(C)C)cc3)n2)n[nH]1 [42d, isopropyl 3-((2-((4-((tert-butoxycarbonyl)amino)benzyl)amino)pyrimidin-4-yl)amino)-1H-pyrazole-5-carboxylate]
ΔTm BRD4 (BRD4): -2.1 °C
ΔTm DMPK1 (DMPK1): -0.1 °C
ΔTm MAP2K4 (MAP2K4): 0.4 °C
ΔTm MAPK15 (MAPK15): 7.0 °C
ΔTm PIM1 (PIM1): 0.2 °C
ΔTm STK17B (STK17B): -2.8 °C
ΔTm STK38L (STK38L): 0.0 °C
ΔTm EPHA4 (EPHA4): -0.1 °C
ΔTm HIPK2 (HIPK2): -0.2 °C
ΔTm NEK2 (NEK2): -1.4 °C

N#CCc1ccc(Nc2nccc(Nc3cc(C4CC4)[nH]n3)n2)cc1 [compound 1, reference compound]
ΔTm BRD4 (BRD4): 1.3 °C
ΔTm DMPK1 (DMPK1): 3.2 °C
ΔTm MAP2K4 (MAP2K4): 10.0 °C
ΔTm MAPK15 (MAPK15): 17.4 °C
ΔTm PIM1 (PIM1): 3.3 °C
ΔTm STK17B (STK17B): 9.7 °C
ΔTm STK38L (STK38L): 8.7 °C
ΔTm ULK1 (ULK1): 15.5 °C
